{"source": "patent US12168003B2", "about": "“Selective inhibition of T follicular helper cells for treatment of autoimmune disorders” (priority 2019, dated 2024)", "key": {"[1]": {"system": "differentiated TH1, TH2 or TH17 cells", "experiment": "In vitro CD4+ T cell differentiation and cytokine production", "type": "cell-based, mouse", "settings": "20 μM 4EGI-1, 48 hours", "description": "Naïve CD4^+ T cells were isolated (EasySep™ Naïve CD4^+ T cell isolation; StemCell) and incubated in mouse T cell media (described under “Silencing of eIF4E in OT2 T cells by lentivirus transduction section”) containing soluble 1 μg/mL anti-CD28, cytokines, and anti-cytokine antibodies as detailed for polarization to TH1: 10 ng/mL mouse IL-12, 50 U/mL human IL-2, 10 μg/mL anti-mouse IL-4; TH2: 10 ng/mL mouse IL-4, 50 U/mL human IL-2, 10 μg/mL anti-mouse IFN-γ; TH17: 20 ng/mL mouse IL-6, 10 ng/mL mouse IL-23, 10 ng/mL mouse IL-113, 2 ng/mL human TGF-β1, 50 U/mL human IL-2 […], 10 μg/mL anti-mouse IFN-γ; and Treg: 2 ng/mL mouse TGFβ, 300 U/mL human IL-2. TH1, TH2, and TH17 differentiation kits (Cytobox) along with human IL-2 were purchased from Miltenyi Biotec. Mouse TGFβ was purchased from BioLegend®. Naïve CD4^+ T cells in conditions described above were activated on 10 μg/mL anti-CD3 coated plates for 3 days. Following differentiation, 20 μM 4EGI-1 was added to T cell cultures for 48 hours. Supernatant was removed and cytokine levels were determined using LEGENDPlex Mouse Th Cytokine Panel (BioLegend®)."}, "[2]": {"system": "human lymph node CD4+ CD45RO+ T cells", "experiment": "In vitro treatment of human lymph node cells with 4EGI-1", "type": "cell-based", "settings": "4EGI-1 overnight, three patients", "description": "Discarded, deidentified, reactive, but non-malignant human lymph node single cell suspensions were obtained. Presence of TFH cells was confirmed by identification of CD4^+ CD45RO^+ T cells that are PD1^+ CXCR5^+ BCL6^+ and ICOS^+. Lymph node suspensions were incubated overnight at 37° C. in X-VIVO media (Lonza) containing 5% human AB serum (Sigma) and Glutamax with 0-25 μM 4EGI-1. Cells were then stained with a live/dead viability marker and then for extracellular expression of human CD4, CD45RO, CXCR5, PD-1, or ICOS or intranuclear expression of BCL6. Expression of markers was normalized to % of control (0 μM 4EGI-1) to allow for combined statistical analysis of all 3 patients. Antibody clones and dilutions used to identify these populations are detailed in Table 2."}, "TH1 and TH17 cells": {"system": "TH1 and TH17 cells", "experiment": "S. aureus sub-dermal ear pinnae infection model", "type": "in vivo, mouse", "description": "S. aureus subspecies Rosenbach (ATCC 25923) was grown overnight in TSB broth (Corning). Following quantification, 1×10^8 CFU of S. aureus in 100 μL were injected subdermal in the base of the ear pinnae. On days 0 through 7, mice were treated daily with i.p. 25 mg/kg 4EGI-1 or vehicle. On day 8, mice were euthanized and the whole infected ear was collected along with the cervical lymph node (CLN) and blood. Blood was allowed to clot at room temperature, spun at 2,000×g for 30 minutes, and serum was collected and frozen until analysis. Ear thickness was measured with a digital caliper on day 8.\nSpleens, draining lymph nodes, and brains were dissociated with the plunger-end of a syringe and passed through a 70 μm nylon filter. Splenocytes were subject to RBC lysis with ACK (Ammonium-Chloride-Potassium). Ears were subject to mechanical dissociation with scissors prior to incubation in 1 mL PBS in a 48-well plate with 100 μg/mL Liberase TL and 20 μg/mL DNase I for 1.5 hours at 37° C. Following incubation, cells were further dissociated by passing through a syringe, quenched with PBS+2% FCS, and filtered through a 70 μm nylon filter. Lungs were mechanically dissociated with a razor blade and incubated in a 6 cm dish with 5 mLs RPMI containing 250 μg/mL collagenase, 50 μg/mL Liberase TL, 1 mg/mL hyaluronidase, and 200 μg/mL DNase I for 30 minutes. Following incubation, cells quenched with PBS+2% FCS, and filtered through a 70 μm nylon filter. Ear and lung cells were subject to lymphocyte isolation using a gradient (Lymphocyte Separation Medium; Cellgro). Vertebral columns were flushed with PBS through a 19-gauge needle to remove intact spinal cords. Spinal cords were subject to mechanical dissociation with scissors and incubation in 1 mL PBS with 200 μg/mL DNase I and 50 μg/mL Liberase TL for 30 minutes at 37° C. Following incubation, cells were quenched with PBS+2% FCS and filtered through a 70 μm nylon filter.\nSingle cell suspensions of noted tissues were resuspended in T cell media with 1× PMA/Ionomycin (cell activation cocktail; BioLegend®) and 1× brefeldin A (BioLegend®) for 5-6 hours at 37° C. Following stimulation, cells were incubated with a live/dead viability marker and extracellular stain prior to fix and permeabilization with Fixation/Permeabilization Solution kit (BD Biosciences) according to manufacturer's instructions to detect intracellular cytokines IL-17A, IFN-γ, or IL-13. Concentration and clones of flow cytometry antibodies used for staining detailed in Table 2.\nFor quantification of OVA-specific IgG1, high-binding 96-well plates (Costar) were coated with 10 μg/mL OVA protein. For S. aureus-specific IgG1, plates were coated with heat-killed S. aureus (heat-killed at 80° C. for 30 min). For total IgE, plates were coated with 2 μg/mL rat anti-mouse IgE (Southern Biotech). Following overnight incubation at 4° C., plates were blocked with 1% BSA for 30 min at 37° C. After blocking, serum (diluted 1/20 initially then 1/2 down the plate) was incubated at 37° C. for 2 hours, plates were washed 3 times in PBS and then incubated with 1:1000 anti-mouse IgG1-HRP (Southern Biotech) or anti-mouse IgE-HRP (Southern Biotech) for 1 hour at 37° C. Plates were washed 3 times in PBS and incubated with TMB substrate. Following development, TMB Stop Solution (BioLegend®) was added and plates were read at […]."}, "[3]": {"system": "TH17-differentiated 2D2 T cells", "experiment": "Passive EAE with TH17-differentiated 2D2 T cells pre-treated with 4EGI-1", "type": "in vivo, mouse", "settings": "2D2 T cells pre-treated with 20 μM 4EGI-1 for 1 h in vitro", "description": "TH17 2D2 T cells were removed from activation and treated with vehicle or 20 μM 4EGI-1 for 1 h at 37° C. in vitro prior to transfer of 9.3×10^6 2 D2 T cells i.p. per recipient. Mice were given 200 ng pertussis toxin i.p. […] following T cell injection. Animals were monitored daily for 35 days and scored on a scale of 0-5 as described above. At day 35, TFH-like (ICOS^high) Vα3.2 cells were identified from the spinal cord."}}, "data": [{"smiles": "O=C(O)C(Cc1ccccc1[N+](=O)[O-])=NNc1nc(-c2ccc(Cl)c(Cl)c2)cs1", "note": "(mixture of isomers) [4EGI-1]", "values": [{"measurement": "secretion of IFN-γ or TNF-α by differentiated TH1 cells", "setting": "[1]", "value": "not altered"}, {"measurement": "secretion of IL-13 by in vitro differentiated TH2 cells", "setting": "[1]", "value": "did not affect"}, {"measurement": "secretion of IL-17A or IL-17F by differentiated TH17 cells", "setting": "[1]", "value": "not altered"}, {"measurement": "levels of BCL6 protein", "setting": "[2]; 0-30 μM / 0-25 μM", "value": "rapidly reduced"}, {"measurement": "cell viability", "setting": "[2]", "value": "no effect"}, {"measurement": "differentiation or effector function of TH1 cells (T-bet+ or IFN-γ+) in the skin", "setting": "TH1 and TH17 cells; 25 mg/kg daily i.p., day 8", "value": "no effect"}, {"measurement": "differentiation or effector function of TH17 cells (RORγT+ or IL17A+) in the skin", "setting": "TH1 and TH17 cells; 25 mg/kg daily i.p., day 8", "value": "no effect"}, {"measurement": "general skin inflammation (ear thickness and skin neutrophil levels)", "setting": "TH1 and TH17 cells; 25 mg/kg daily i.p., day 8", "value": "no effect"}, {"measurement": "formation of GC B cells in draining lymph nodes", "setting": "TH1 and TH17 cells; cervical lymph nodes, day 8", "value": "strongly reduced"}, {"measurement": "formation of TFH cells in draining lymph nodes", "setting": "TH1 and TH17 cells; cervical lymph nodes, day 8", "value": "strongly reduced"}, {"measurement": "secretion of class-switched immunoglobulins", "setting": "TH1 and TH17 cells; serum S. aureus-specific IgG1, day 8", "value": "strongly reduced"}, {"measurement": "TFH-like 2D2 T cells (ICOShigh) in the spinal cord", "setting": "[3]", "value": "reduced by half"}, {"measurement": "development of passive EAE disease in recipient mice", "setting": "[3]", "value": "did not develop disease"}]}]}
